Measurements published in ChEMBL document CHEMBL1629631, “In vitro activities of various antifungal drugs against Aspergillus terreus: Global assessment using the methodology of the European committee on antimicrobial susceptibility testing” (2009).
In brackets after ≈: the same amount, converted by molar mass. Numbered stars: 1 amine (or outer) side, 2 acyl side, 3 side chain; on linkers, the order of the positions; unused ones are H or OH. Bridge positions count the residues as written; N and C are the ends. Square brackets hold non-standard residues; d marks the D form. Peptide text beside a SMILES is read from it. * marks the point of attachment. hTyr(3S-OH,4S-OH,3'-OSO3H) = N[C@H](C(=O)O)[C@H](O)[C@@H](O)c1ccc(O)c(OS(=O)(=O)O)c1; pTerphenylCO(4''-OnC5H11) = CCCCCOc1ccc(-c2ccc(-c3ccc(C(=O)*)cc3)cc2)cc1; Orn(4R-OH,5R-OH) = O=C([C@H](C[C@@H](O)[C@@H](O)N[*:3])N[*:1])[*:2]; hTyr(3S-OH,4S-OH) = N[C@H](C(=O)O)[C@H](O)[C@@H](O)c1ccc(O)cc1; Pro(3S-OH,4S-Me) = C[C@H]1CN[C@H](C(=O)O)[C@H]1O; X1 = CCCCCOc1ccc(-c2cc(-c3ccc(C(=O)*)cc3)no2)cc1; Gln(3R-OH) = NC(=O)C[C@@H](O)[C@H](N)C(=O)O; Hyp = O=C(O)[C@@H]1C[C@@H](O)CN1

Legend:
[1] = test system: Aspergillus terreus; test: Antimicrobial activity against Aspergillus terreus environmental isolate after 48 hrs by EUCAST test; assay type: functional
[2] = test system: Aspergillus terreus; test: Antimicrobial activity against Aspergillus terreus clinical isolate after 48 hrs by EUCAST test; assay type: functional

Work on `CCCCCOc1ccc(-c2cc(-c3ccc(C(=O)N[C@H]4C[C@@H](O)[C@@H](O)NC(=O)[C@@H]5[C@@H](O)[C@@H](C)CN5C(=O)[C@H]([C@H](O)CC(N)=O)NC(=O)[C@H]([C@H](O)[C@@H](O)c5ccc(O)c(OS(=O)(=O)O)c5)NC(=O)[C@@H]5C[C@@H](O)CN5C(=O)[C@H]([C@@H](C)O)NC4=O)cc3)no2)cc1` [MICAFUNGIN] (X1-[Orn(4R-OH,5R-OH)]T[Hyp][hTyr(3S-OH,4S-OH,3'-OSO3H)][Gln(3R-OH)][Pro(3S-OH,4S-Me)]; lactam 1-C) yielded an MIC50 [1] of 0.015 µg/mL (≈ 0.0118 µM), an MIC90 [1] of 0.03 µg/mL (≈ 0.0236 µM) and an MIC50 [2] of 0.015 µg/mL (≈ 0.0118 µM). For the same compound, the MIC90 [2] was 0.03 µg/mL (≈ 0.0236 µM).
In the case of `C[C@@H]1[C@H](O)[C@@H](C)/C=C/C=C/C=C/C=C/C=C/C=C/C=C/[C@H](O[C@@H]2O[C@H](C)[C@@H](O)[C@H](N)[C@@H]2O)C[C@@H]2O[C@](O)(C[C@@H](O)C[C@@H](O)[C@H](O)CC[C@@H](O)C[C@@H](O)CC(=O)O[C@H]1C)C[C@H](O)[C@H]2C(=O)O` [AMPHOTERICIN B], the MIC50 [1] is reported as 2 µg/mL (≈ 2.16 µM), the MIC90 [1] is reported as 2 µg/mL (≈ 2.16 µM) and the MIC50 [2] is reported as 2 µg/mL (≈ 2.16 µM). For the same compound, the MIC90 [2] was 2 µg/mL (≈ 2.16 µM).
With `CC[C@@H]([C@H](C)O)n1ncn(-c2ccc(N3CCN(c4ccc(OC[C@@H]5CO[C@@](Cn6cncn6)(c6ccc(F)cc6F)C5)cc4)CC3)cc2)c1=O` [POSACONAZOLE] the MIC50 [1] was 0.12 µg/mL (≈ 0.171 µM), the MIC90 [1] was 0.12 µg/mL (≈ 0.171 µM) and the MIC50 [2] was 0.12 µg/mL (≈ 0.171 µM). The MIC90 [2] was 0.12 µg/mL (≈ 0.171 µM).
For `C[C@@H](c1nc(-c2ccc(C#N)cc2)cs1)[C@](O)(Cn1cncn1)c1ccc(F)cc1F` [RAVUCONAZOLE], the MIC50 [1] was 1 µg/mL (≈ 2.29 µM), the MIC90 [1] was 2 µg/mL (≈ 4.57 µM) and the MIC50 [2] was 1 µg/mL (≈ 2.29 µM). The MIC90 [2] was 2 µg/mL (≈ 4.57 µM).
With `C[C@@H](c1ncncc1F)[C@](O)(Cn1cncn1)c1ccc(F)cc1F` [VORICONAZOLE] the MIC50 [1] was 1 µg/mL (≈ 2.86 µM), the MIC90 [1] was 2 µg/mL (≈ 5.73 µM) and the MIC50 [2] was 1 µg/mL (≈ 2.86 µM). The MIC90 [2] was 2 µg/mL (≈ 5.73 µM).
For `CCCCCOc1ccc(-c2ccc(-c3ccc(C(=O)N[C@H]4C[C@@H](O)[C@@H](O)NC(=O)[C@@H]5[C@@H](O)[C@@H](C)CN5C(=O)[C@H]([C@@H](C)O)NC(=O)[C@H]([C@H](O)[C@@H](O)c5ccc(O)cc5)NC(=O)[C@@H]5C[C@@H](O)CN5C(=O)[C@H]([C@@H](C)O)NC4=O)cc3)cc2)cc1` [ANIDULAFUNGIN] ({pTerphenylCO(4''-OnC5H11)}-[Orn(4R-OH,5R-OH)]T[Hyp][hTyr(3S-OH,4S-OH)]T[Pro(3S-OH,4S-Me)]; lactam 1-C), the MIC50 [1] was 0.015 µg/mL (≈ 0.0132 µM), the MIC90 [1] was 0.03 µg/mL (≈ 0.0263 µM) and the MIC50 [2] was 0.015 µg/mL (≈ 0.0132 µM). For the same compound, the MIC90 [2] was 0.03 µg/mL (≈ 0.0263 µM).
`CN(C/C=C/C#CC(C)(C)C)Cc1cccc2ccccc12` [TERBINAFINE] gave an MIC50 [1] of 0.25 µg/mL (≈ 0.858 µM), an MIC90 [1] of 0.5 µg/mL (≈ 1.72 µM) and an MIC50 [2] of 0.25 µg/mL (≈ 0.858 µM). It also gave an MIC90 [2] of 0.5 µg/mL (≈ 1.72 µM).
With `CC[C@H](C)C[C@H](C)CCCCCCCCC(=O)N[C@H]1C[C@@H](O)[C@@H](NCCN)NC(=O)[C@@H]2[C@@H](O)CCN2C(=O)[C@H]([C@H](O)CCN)NC(=O)[C@H]([C@H](O)[C@@H](O)c2ccc(O)cc2)NC(=O)[C@@H]2C[C@@H](O)CN2C(=O)[C@H]([C@@H](C)O)NC1=O` [CASPOFUNGIN] the MIC50 [1] was 1 µg/mL (≈ 0.915 µM), the MIC90 [1] was 2 µg/mL (≈ 1.83 µM) and the MIC50 [2] was 1 µg/mL (≈ 0.915 µM). For the same compound, the MIC90 [2] was 2 µg/mL (≈ 1.83 µM).
`CCC(C)n1ncn(-c2ccc(N3CCN(c4ccc(OCC5COC(Cn6cncn6)(c6ccc(Cl)cc6Cl)O5)cc4)CC3)cc2)c1=O` (stereo unspecified) [ITRACONAZOLE] gave an MIC50 [1] of 0.125 µg/mL (≈ 0.177 µM), an MIC90 [1] of 0.5 µg/mL (≈ 0.709 µM) and an MIC50 [2] of 0.125 µg/mL (≈ 0.177 µM). The MIC90 [2] was 0.5 µg/mL (≈ 0.709 µM).
